For one assay, the target named is DYRK1A kinase (Homo sapiens (Human), UniProt Q13627). Description: DYRK1A kinase assay (Ser/Thr 18 peptide Z-lyte FRET). Type of assay: biochemical. Particulars: read-out: EC50 (method: IC50). In short, it runs like this:
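Kinase reactions with compound ran 1 h at room temperature in duplicate, and development reagent was then added for another hour.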

Assay [1] concerns Wnt activity (Sp5-Luc reporter in SW480 cells). Description: Screening assay for Wnt activity: Sp5-Luc reporter gene assay in SW480 colon carcinoma cells. Format: cell-based, human. To be noted: Homo sapiens, 36 to 48 hours. In a few lines: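 EC50 values come from a variable-slope four-parameter fit of luminescence normalized to DMSO-only wells. The read-out follows 36–48 h incubation at 37 °C, 5% CO2, in DMEM containing 1% fetal bovine serum. Cells are hygromycin-selected SW480 stably expressing firefly luciferase under a Wnt-responsive Sp5 promoter (eight TCF/LEF sites).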
A general note: In a reporter assay the amount or activity of a reporter protein is the signal.

Another assay concerns the target GSK3β kinase (Homo sapiens (Human), UniProt P49841). Briefly: GSK3β kinase assay (Ser/Thr 09 peptide Z-lyte FRET). Type of assay: biochemical. To be noted: read-out: EC50 (method: IC50). In a few lines:
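Non-radioactive Z-lyte FRET read-out, kinase activity expressed as coumarin/fluorescein emission ratio. Compounds incubated with the reaction mixture one hour at room temperature in duplicate, then development buffer added for another hour. IC50 from non-linear regression of dose-response curves.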

Assay [2] deals with SW480 colon carcinoma cells. Briefly: Cell viability assay (CellTiter-Glo) in SW480 colon carcinoma cells. Format: cell-based, human. To be noted: Homo sapiens, 96 h, four days. In a few lines:
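Viability was taken from CellTiter-Glo ATP luminescence, read about 12 min after reagent addition, relative to DMSO controls. The cells were Sp5-Luc reporter SW480 colon carcinoma cells, 2,000/well in 1% FBS DMEM, exposed to compound for four days at 37 °C.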
For orientation: In ATP-based viability assays light output follows the ATP content of the culture.

Assay [3] has as its system primary human fibroblasts derived from IPF patients (LL29 cells). Description: Inhibition of the fibrotic process: αSMA staining in TGF-β1 treated LL29 fibroblasts. Particulars: Homo sapiens, Fibroblast, 96 h; LL29 cells, TGF-β1 20 ng/mL, 4 days, % αSMA positive cells. Type of assay: cell-based. In a few lines: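 LL29 fibroblasts from IPF patients, in F12 medium with 1% FBS, treated with TGF-β1 plus compound; TGF-β1 with DMSO as positive control, DMSO alone as negative control. After 4 days' incubation, SYTOX green nucleic acid stain added at 1 μM final, 30 min at room temperature.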

Another assay relates to IL-6. Briefly: IL-6 inhibition in LPS-stimulated human peripheral blood mononuclear cells (HTRF). Type of assay: cell-based. Particulars: Homo sapiens, PBMC; for EC50: huPBMCs, LPS 50 ng/mL, 22 hours, IL-6 HTRF; for inhibition at 10 µM: read-out: percent inhibition at 10 μM. In short, it runs like this: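 HTRF 665/620 nm ratio, read after 3 h antibody incubation at room temperature, quantified IL-6 released by fresh human PBMCs (1×10e6 cells/mL, 1% FBS-RPMI). The cells got compound, then 50 ng/mL LPS at 2 h, followed by a further 22 h at 37° C. EC50 came from DMSO-normalized readings run in duplicate.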

Molecules are shown by their SMILES.

Chain of GSK3β kinase (P49841 whole entry): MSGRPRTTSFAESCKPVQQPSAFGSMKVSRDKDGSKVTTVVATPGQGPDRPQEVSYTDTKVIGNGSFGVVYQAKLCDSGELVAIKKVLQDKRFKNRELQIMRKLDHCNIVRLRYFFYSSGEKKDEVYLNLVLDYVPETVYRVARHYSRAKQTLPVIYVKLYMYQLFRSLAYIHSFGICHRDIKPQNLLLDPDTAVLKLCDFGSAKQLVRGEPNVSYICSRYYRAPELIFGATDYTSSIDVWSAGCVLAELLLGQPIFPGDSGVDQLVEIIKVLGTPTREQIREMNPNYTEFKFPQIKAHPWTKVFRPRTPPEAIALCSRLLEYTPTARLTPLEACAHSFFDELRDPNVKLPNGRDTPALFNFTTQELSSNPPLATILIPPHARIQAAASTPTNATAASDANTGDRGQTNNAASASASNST

The IC50 is the concentration that inhibits the measured activity by half. The term EC50 denotes the concentration at which the effect is half-maximal. Low readings indicate greater potency, high ones weaker potency. As for `O=C(Nc1ccc(OC(F)F)cc1)c1n[nH]c2ccc(-c3cnn(C4CCN(CCF)CC4)c3)cc12` [Compound 60, N-(4-(Difluoromethoxy)phenyl)-5-(1-(1-(2-fluoroethyl)piperidin-4-yl)-1H-pyrazol-4-yl)-1H-indazole-3-carboxamide], the IC50 at DYRK1A kinase was 1.5 µM; on GSK3β kinase, more than 10 µM. In addition, the EC50 in assay [1] was determined as 3.85 µM; in assay [2] it was 3.73 µM; in assay [3], 1.28 µM; with IL-6, 8.98 µM.

In general, inhibition refers to the change of the read-out against control, counted positive when it falls. As to `O=C(Nc1ccc(OC(F)F)cc1)c1n[nH]c2ccc(-c3cnn(CC4CCNCC4)c3)cc12` [Compound 63, N-(4-(Difluoromethoxy)phenyl)-5-(1-(piperidin-4-ylmethyl)-1H-pyrazol-4-yl)-1H-indazole-3-carboxamide], the IC50 on DYRK1A kinase is 0.767 µM; on GSK3β kinase, 2.32 µM. The EC50 was 9.44 µM in assay [1], 0.768 µM in assay [2], 2.03 µM in assay [3] and more than 10 µM in the assay on IL-6. Further, the inhibition at 10 µM in the assay on IL-6 amounted to 6.2%.

Regarding `CN1CCC(c2ccc(NC(=O)c3n[nH]c4cc(F)c(-c5cnn(C)c5)cc34)cc2)CC1` [Compound 65, 6-Fluoro-5-(1-methyl-1H-pyrazol-4-yl)-N-(4-(1-methylpiperidin-4-yl)phenyl)-1H-indazole-3-carboxamide], the IC50 on DYRK1A kinase was determined as 0.004 µM; at GSK3β kinase it was 0.044 µM. Moreover, the EC50 was determined as 0.805 µM in assay [1], 1.1 µM in assay [2], 0.62 µM in assay [3] and 3.18 µM with IL-6.

For `CN1CCN(c2ccc(NC(=O)c3n[nH]c4cc(F)c(-c5cnn(C)c5)cc34)cc2)CC1` [Compound 66, 6-Fluoro-5-(1-methyl-1H-pyrazol-4-yl)-N-(4-(4-methylpiperazin-1-yl)phenyl)-1H-indazole-3-carboxamide], the values for the 50% inhibitory concentration (IC50) on DYRK1A kinase and on GSK3β kinase were 0.002 µM and 0.065 µM, respectively. Also, the EC50 in assay [1] was found to be 0.953 µM; in assay [2] it was 0.759 µM; in assay [3] it was 0.65 µM; in the assay with IL-6, 1.28 µM.

Take `Cn1cc(-c2ccc3[nH]nc(C(=O)Nc4ccc(CN5CCCC5)cc4)c3c2)cn1` [Compound 68, 5-(1-Methyl-1H-pyrazol-4-yl)-N-(4-(pyrrolidin-1-ylmethyl)phenyl)-1H-indazole-3-carboxamide]: the IC50 at DYRK1A kinase was found to be 0.001 µM; on GSK3β kinase, 0.006 µM. Further, the EC50 was 0.264 µM in assay [1], 0.36 µM in assay [2], 0.074 µM in assay [3] and more than 10 µM in the assay with IL-6.

For `Cn1cc(-c2cc3c(C(=O)Nc4ccc(CN5CCCC5)cc4)n[nH]c3cc2F)cn1` [Compound 69, 6-Fluoro-5-(1-methyl-1H-pyrazol-4-yl)-N-(4-(pyrrolidin-1-ylmethyl)phenyl)-1H-indazole-3-carboxamide], the IC50 at DYRK1A kinase was determined as 0.002 µM; at GSK3β kinase, 0.02 µM. Besides, the EC50 in assay [1] worked out at 0.308 µM; in assay [2], 0.191 µM; in assay [3], 0.328 µM; in the assay on IL-6, 1.32 µM.

As to `CCn1cc(-c2ccc3[nH]nc(C(=O)Nc4ccc(CN5CCCC5)cc4)c3c2)cn1` [Compound 70, 5-(1-Ethyl-1H-pyrazol-4-yl)-N-(4-(pyrrolidin-1-ylmethyl)phenyl)-1H-indazole-3-carboxamide], the values for the IC50 at DYRK1A kinase and on GSK3β kinase were 0.005 µM and 0.025 µM, respectively. Further, the EC50 worked out at 0.512 µM in assay [1], 0.518 µM in assay [2], 0.126 µM in assay [3] and 1.38 µM in the assay with IL-6.

Consider `CC(C)n1cc(-c2ccc3[nH]nc(C(=O)Nc4ccc(CN5CCCC5)cc4)c3c2)cn1` [Compound 71, 5-(1-Isopropyl-1H-pyrazol-4-yl)-N-(4-(pyrrolidin-1-ylmethyl)phenyl)-1H-indazole-3-carboxamide], for which the values for the IC50 at DYRK1A kinase and at GSK3β kinase were 0.025 µM and 0.169 µM, respectively. The EC50 in assay [1] turned out to be 1.49 µM; in assay [2] it was 1.1 µM; in assay [3], 0.322 µM; with IL-6 it was 4.8 µM.

`O=C(Nc1ccc(CN2CCCC2)cc1)c1n[nH]c2ccc(-c3cnn(C4CC4)c3)cc12` [Compound 72, 5-(1-Cyclopropyl-1H-pyrazol-4-yl)-N-(4-(pyrrolidin-1-ylmethyl)phenyl)-1H-indazole-3-carboxamide]: the IC50 on DYRK1A kinase was 0.006 µM; on GSK3β kinase, 0.04 µM. The EC50 was 0.545 µM in assay [1], 0.228 µM in assay [2], 0.242 µM in assay [3] and 1.2 µM with IL-6.

Regarding `Cn1cc(-c2ccc3[nH]nc(C(=O)Nc4ccc(CN5CCCC5)cc4F)c3c2)cn1` [Compound 73, N-(2-Fluoro-4-(pyrrolidin-1-ylmethyl)phenyl)-5-(1-methyl-1H-pyrazol-4-yl)-1H-indazole-3-carboxamide], the values for the half-maximal inhibitory concentration (IC50) on DYRK1A kinase and at GSK3β kinase were 0.003 µM and 0.068 µM, respectively. Besides, the half-maximal effective concentration (EC50) in assay [1] was 1.55 µM; in assay [2], 6.97 µM; in assay [3] it was 0.799 µM; in the assay on IL-6, 1.16 µM.

In the case of `Cn1cc(-c2ccc3[nH]nc(C(=O)Nc4ccc(CN5CCCC5)cc4O)c3c2)cn1` [Compound 74, N-(2-Hydroxy-4-(pyrrolidin-1-ylmethyl)phenyl)-5-(1-methyl-1H-pyrazol-4-yl)-1H-indazole-3-carboxamide], the values for the half-maximal inhibitory concentration (IC50) at DYRK1A kinase and on GSK3β kinase were 0.305 µM and 0.878 µM, respectively. In addition, the EC50 was 2.17 µM in assay [1], more than 10 µM in assay [2], 0.035 µM in assay [3] and more than 10 µM with IL-6. The inhibition at 10 µM in the assay on IL-6 is 22.1%.

In the case of `Cn1cc(-c2cc3c(C(=O)Nc4ccc(CN5CCC(F)CC5)cc4)n[nH]c3cc2F)cn1` [Compound 75, 6-Fluoro-N-(4-((4-fluoropiperidin-1-yl)methyl)phenyl)-5-(1-methyl-1H-pyrazol-4-yl)-1H-indazole-3-carboxamide], the concentration for half-maximal inhibition (IC50) on DYRK1A kinase was found to be 0.003 µM; at GSK3β kinase, 0.039 µM. The EC50 is 0.542 µM in assay [1], 1.1 µM in assay [2], 0.159 µM in assay [3] and 1.16 µM with IL-6.

In the case of `CN1CCN(Cc2ccc(NC(=O)c3n[nH]c4cc(F)c(-c5cnn(C)c5)cc34)cc2)CC1` [Compound 78, 6-Fluoro-5-(1-methyl-1H-pyrazol-4-yl)-N-(4-((4-methylpiperazin-1-yl)methyl)phenyl)-1H-indazole-3-carboxamide], the IC50 is 0.001 µM at DYRK1A kinase and 0.018 µM at GSK3β kinase. The EC50 was 0.249 µM in assay [1], 0.454 µM in assay [2], 0.545 µM in assay [3] and 1.14 µM in the assay on IL-6.

For the compound `CN1CCC(Oc2ccc(NC(=O)c3n[nH]c4cc(F)c(-c5cnn(C)c5)cc34)cc2)CC1` [Compound 79, 6-Fluoro-5-(1-methyl-1H-pyrazol-4-yl)-N-(4-((1-methylpiperidin-4-yl)oxy)phenyl)-1H-indazole-3-carboxamide], the IC50 on DYRK1A kinase stood at 0.002 µM; at GSK3β kinase, 0.06 µM. Further, the EC50 in assay [1] was 0.266 µM; in assay [2] it was 0.14 µM; in assay [3], 0.061 µM; in the assay on IL-6 it was 1.76 µM.

As to `CN1CCC(Oc2ccc(NC(=O)c3n[nH]c4cc(F)c(-c5cnn(C(F)F)c5)cc34)cc2)CC1` [Compound 80, 5-(1-(Difluoromethyl)-1H-pyrazol-4-yl)-6-fluoro-N-(4-((1-methylpiperidin-4-yl)oxy)phenyl)-1H-indazole-3-carboxamide], the figures for the IC50 at DYRK1A kinase and on GSK3β kinase were 0.019 µM and 0.783 µM, respectively. Also, the EC50 in assay [1] amounted to 8.52 µM; in assay [2] it was 5 µM; in assay [3], 1.3 µM; in the assay with IL-6 it was 3.44 µM.

As to `Cc1c(-c2cc3c(C(=O)Nc4ccc(OC5CCN(C)CC5)cc4)n[nH]c3cc2F)cnn1C` [Compound 81, 5-(1,5-Dimethyl-1H-pyrazol-4-yl)-6-fluoro-N-(4-((1-methylpiperidin-4-yl)oxy)phenyl)-1H-indazole-3-carboxamide], the figures for the IC50 at DYRK1A kinase and at GSK3β kinase were 0.001 µM and 0.035 µM, respectively. Besides, the half-maximal effective concentration (EC50) in assay [1] stood at 0.115 µM; in assay [2] it was 0.139 µM; in assay [3] it was 0.341 µM; with IL-6 it was 1.06 µM.

Turning to `CN1CCC(Nc2ccc(NC(=O)c3n[nH]c4cc(F)c(-c5cnn(C)c5)cc34)cc2)CC1` [Compound 83, 6-Fluoro-5-(1-methyl-1H-pyrazol-4-yl)-N-(4-((1-methylpiperidin-4-yl)amino)phenyl)-1H-indazole-3-carboxamide], the 50% inhibitory concentration (IC50) at DYRK1A kinase stood at 0.002 µM; on GSK3β kinase, 0.074 µM. Further, the EC50 worked out at 0.275 µM in assay [1], 0.22 µM in assay [2], 0.25 µM in assay [3] and 1.24 µM with IL-6.

For the origin of these results see patent US10934297B2, “5-heteroaryl substituted indazole-3-carboxamides and preparation and use thereof” (Samumed, LLC, priority 2018, dated 2021).
